Assay results from PubChem BioAssay (NCI).
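Growth conditions: 96-well plates. Treatment: test compound, 48 hours, 5 concentrations. Analysis: linear interpolation between bracketing concentrations; unreached endpoints set to highest concentration. TGI: concentration producing complete growth inhibition.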

What was measured:
Test in all cases: inhibition of tumour cell growth, NCI panel, 48 h
NCI-H23 lung = tested on: NCI-H23 lung
HCC-2998 colon = tested on: HCC-2998 colon
BT-549 breast = tested on: BT-549 breast
CCRF-CEM leukemia = tested on: CCRF-CEM leukemia
UACC-257 melanoma = tested on: UACC-257 melanoma
UACC-62 melanoma = tested on: UACC-62 melanoma
OVCAR-8 ovarian = tested on: OVCAR-8 ovarian
SF-268 CNS = tested on: SF-268 CNS
SK-MEL-28 melanoma = tested on: SK-MEL-28 melanoma
SF-295 CNS = tested on: SF-295 CNS
NCI-H522 lung = tested on: NCI-H522 lung

Measured: TGI

O=C1Oc2cc(O)cc(/C=C/c3ccc(O)cc3)c2[C@@]12c1c(O)cc(O)cc1OC2c1cccc(O)c1 (some centres not stated)
67.5 µM: UACC-257 melanoma
88.1 µM: SF-295 CNS
56.5 µM: CCRF-CEM leukemia
73.4 µM: NCI-H23 lung
46.2 µM: HCC-2998 colon
68 µM: UACC-62 melanoma
not listed: NCI-H522 lung
> 100 µM: all other assays above

CCN1CCC(O)(c2ccc(Cl)cc2)C(C(=O)c2ccc(Cl)cc2)C1 (configuration not stated)
41.9 µM: NCI-H522 lung
not listed: BT-549 breast
> 100 µM: all other assays above

COI1NC(=O)c2ccccc21
not listed: HCC-2998 colon | BT-549 breast | UACC-257 melanoma
> 100 µM: all other assays above

CCN(CC)C(=O)C(C)n1cc(C)c(=O)[nH]c1=O (configuration not stated)
not listed: BT-549 breast | UACC-257 melanoma
> 100 µM: all other assays above

Cc1nc2c(=O)n(C)ncc2[nH]1
not listed: HCC-2998 colon | NCI-H522 lung
> 100 µM: all other assays above

CC(=O)c1cc2ccccc2oc1=O
not listed: UACC-62 melanoma
> 100 µM: all other assays above

Cn1c(-c2cccc([N+](=O)[O-])c2)[n+](C)c2ccccc21
not listed: NCI-H522 lung
> 100 µM: all other assays above

Cc1cc(=O)oc2c(CNC(Cc3ccccc3)C(=O)O)c(O)ccc12 (configuration not stated)
not listed: BT-549 breast
> 100 µM: all other assays above

Nc1nc2c3nc(Nc4ccccc4)sc3nc(=O)n2c2sc(Nc3ccccc3)nc12
not listed: BT-549 breast
> 100 µM: all other assays above

COC(=O)c1c2cccccc-2c(Cc2c3cccccc-3c(C(=O)OC)c2O)c1O
not listed: BT-549 breast
> 100 µM: all other assays above

COc1cc(Cc2nccc3cc(OC)c(OC)cc23)c(N=NN(C)C)cc1OC
9.33 µM: CCRF-CEM leukemia
44.9 µM: UACC-257 melanoma
74.9 µM: SF-295 CNS
48.7 µM: NCI-H23 lung
60 µM: OVCAR-8 ovarian
28.9 µM: HCC-2998 colon | UACC-62 melanoma
77.8 µM: SF-268 CNS
31.1 µM: SK-MEL-28 melanoma
44 µM: BT-549 breast

COc1cc(CNNC(N)=S)cc(OC)c1OC
not listed: UACC-62 melanoma
> 100 µM: all other assays above

OC(c1cc(C23CC4CC(CC(C4)C2)C3)nc2c(Cl)cc(Cl)cc12)C1CCCCN1 (configuration not stated)
3.18 µM: OVCAR-8 ovarian
3.33 µM: NCI-H522 lung
3.53 µM: UACC-257 melanoma
3.16 µM: UACC-62 melanoma
3.76 µM: SF-295 CNS
3.25 µM: SF-268 CNS

COc1cc(/C=c2\sc3n(c2=O)C(c2ccc(Cl)cc2)C2=C(CCCC2C)N=3)cc(OC)c1OC (configuration not stated)
> 100 µM: CCRF-CEM leukemia | UACC-257 melanoma | UACC-62 melanoma | OVCAR-8 ovarian | SF-268 CNS | SK-MEL-28 melanoma

O=C(O)CN1C(=O)C(Cc2ccc(O)cc2)N=C(c2cccc(O)c2)c2ccccc21 (configuration not stated)
not listed: NCI-H23 lung | HCC-2998 colon | CCRF-CEM leukemia
> 100 µM: all other assays above

COc1ccc(/C=C2\CCC(C)C3=C2N=c2s/c(=C/c4cccc(Br)c4)c(=O)n2C3c2ccc(OC)c(OC)c2)cc1OC (configuration not stated)
> 100 µM: CCRF-CEM leukemia | UACC-257 melanoma | UACC-62 melanoma | OVCAR-8 ovarian | SF-268 CNS | SK-MEL-28 melanoma

CC1(C)CCC[C@]2(C)[C@H]3[C@H](C#N)c4cc(O)c(O)cc4O[C@@]3(C)CC[C@@H]12
not listed: BT-549 breast | UACC-62 melanoma
> 10 µM: all other assays above

CC(=O)O[C@H]1[C@H](OC(=O)CC(C)(O)CC(=O)O)C[C@]2(C)C3=C(CCC2C1(C)C)[C@]1(C)CC[C@H]([C@H]2CC[C@H](C(C)(C)O)OC2O)[C@@]1(C)[C@@H](O)C3 (some centres not stated)
31.7 µM: HCC-2998 colon
32.2 µM: NCI-H23 lung
37 µM: UACC-62 melanoma
35.4 µM: UACC-257 melanoma | OVCAR-8 ovarian
29 µM: BT-549 breast
31.5 µM: SK-MEL-28 melanoma
49.7 µM: CCRF-CEM leukemia
33.9 µM: SF-295 CNS

CC(=O)O[C@H]1C(=O)[C@@]2(C)C(C(OC(=O)c3ccccc3)C3[C@@H](O)C(OC(=O)[C@@H](O)[C@H](NC(=O)c4ccccc4)c4ccc(C(F)(F)F)cc4)C(C)=C1C3(C)C)[C@]1(OC(C)=O)CO[C@@H]1C[C@@H]2O (some centres not stated)
21.1 µM: NCI-H522 lung
not listed: BT-549 breast
> 25 µM: all other assays above

COc1ccc(SCc2cc(OCc3ccccc3)c(OCc3ccccc3)c(OCc3ccccc3)c2)cc1
3.42 µM: SF-268 CNS
3.37 µM: NCI-H522 lung
3.58 µM: SF-295 CNS
3.49 µM: CCRF-CEM leukemia
2.85 µM: HCC-2998 colon
3.35 µM: NCI-H23 lung
3.59 µM: OVCAR-8 ovarian
3.52 µM: SK-MEL-28 melanoma
3.09 µM: UACC-257 melanoma
4.59 µM: BT-549 breast

C=C1C2C[C@@H]3O[C@H]4C[C@H]5O[C@@]6(C[C@@H]7O[C@]8(C[C@H](C)[C@@H]9O[C@@H]%10CC(CO)O[C@@H]%10C[C@@H]9O8)C[C@H](C)[C@@H]7O6)C[C@H]5O[C@H]4[C@H](C)[C@H]3OC(=O)C[C@H]3CC[C@@H]4OC5[C@H]6O[C@]7(CC[C@H]8CC(=C)[C@H](CC[C@@H](C[C@H]1C)O2)O8)CC6O[C@@H]5[C@@H](O7)[C@H]4O3 (some centres not stated)
0.00513 µM: OVCAR-8 ovarian
0.00124 µM: NCI-H23 lung
> 1 µM: CCRF-CEM leukemia | UACC-257 melanoma | UACC-62 melanoma | SF-295 CNS
> 0.874 µM: SF-268 CNS
< 0.0001 µM: BT-549 breast | NCI-H522 lung

C=CCc1cccc2cc(C(=O)Nc3ccccn3)c(=N)oc12
not listed: SF-295 CNS | NCI-H522 lung
> 100 µM: all other assays above

CCOC(=O)c1ccc(N=c2sc3ccccc3nc2Nc2ccc(C(=O)OCC)cc2)cc1
77.6 µM: NCI-H522 lung
not listed: BT-549 breast
> 100 µM: all other assays above

COCN1C(=O)[C@@H]2CCCN2C(=O)c2cc(N)ccc21
not listed: HCC-2998 colon | CCRF-CEM leukemia
> 100 µM: all other assays above

COc1ccc2nc(-c3ccc(O)cc3)sc2c1
39 µM: UACC-257 melanoma
49.5 µM: SF-268 CNS
42.6 µM: SF-295 CNS
31.2 µM: NCI-H522 lung
36.3 µM: BT-549 breast
45.1 µM: OVCAR-8 ovarian
42.9 µM: UACC-62 melanoma
43.6 µM: NCI-H23 lung

O=C1CC(c2ccccc2)n2cccc21 (configuration not stated)
not listed: BT-549 breast
> 100 µM: all other assays above

C=C1CCC([N+](=O)[O-])[C@](C)(N=O)CC[C@@H]2C1CC2(C)C (some centres not stated)
37.6 µM: SF-295 CNS
> 100 µM: CCRF-CEM leukemia | SF-268 CNS
46.2 µM: UACC-257 melanoma
33.3 µM: NCI-H23 lung
48 µM: OVCAR-8 ovarian
37.1 µM: BT-549 breast
49.1 µM: NCI-H522 lung

CO/N=C(\C)CCC#Cc1ccccc1C(=O)OC
not listed: NCI-H522 lung
> 10 µM: all other assays above

O=C(NCCCCCCNC(=O)c1cc(-c2ccccc2)nc2ccccc12)c1cc(-c2ccccc2)nc2ccccc12
not listed: HCC-2998 colon
> 100 µM: all other assays above

C=C(Br)CNC(=O)CCC(=O)NCC(=C)Br
not listed: BT-549 breast
> 100 µM: all other assays above

Cn1c2ccccc2c(=O)c2cccc(C(=O)NC(CCC(N)=O)C(=O)O)c21 (configuration not stated)
not listed: CCRF-CEM leukemia | NCI-H522 lung
> 100 µM: all other assays above
